The text below walks through data of patent US20170368015A1, “NOVEL COMPOUND AND ANTIVIRAL AGENT CONTAINING SAME AS ACTIVE INGREDIENT” (NATIONAL UNIVERSITY CORPORATION CHIBA UNIVERSITY, priority 2014, published 2017).

The first assay deals with RS virus. As to the kind of experiment: Evaluation of anti-RS viral activity (MTT assay kit; viable cell count of RS virus-infected Hep2 cells). It is filed as cell-based, RS virus (human respiratory syncytial virus). The following applies: additive amount 80 μM; Hep2 cells, RS virus 1 MOI, cultured 72 hours; DMSO control = 100. The protocol:
The aforementioned Compound 1 (No. 150) to Compound 22 (No. 306) were measured for anti-RS viral activity according to the protocol of MTT assay kit (CellTiter-Glo (registered trade name) Assay, Promega Corporation).
In a 96-well plate, Hep2 cells were seeded at 1×10^3 cells per well, and each of compounds in the amount shown in Table 7, and RS virus having an infectivity titer of 1 MOI were added, and cultured for 72 hours, and then a viable cell count was determined. As a control, a well containing DMSO at 25 μM (when the additive amount of the compound is 80 μM) or 5 μM (when the additive amount of the compound is 16 μM) in place of a compound was prepared.
Turning to `COC(=O)[C@@H]1N[C@H](c2cccc([C@H]3N[C@@H](C(=O)OC)[C@H](c4ccccc4)[C@H]3[N+](=O)[O-])c2)[C@H]([N+](=O)[O-])[C@H]1c1ccccc1` [Compound 2, dimethyl 5,5′-(1,3-phenylene) (2R, 2′R, 3S, 3′S, 4R, 4′R, 5R, 5′R)-bis(4-nitro-3-phenylpyrrolidine-2-carboxylate)], the “Survival Rate (%)” value was found to be 332%.

Staying with this assay, now noted: human respiratory syncytial virus, HEp-2, 72 h, read-out: Survival Rate (%).
On to `COc1ccc(NCCNc2ccc(OC)cc2)cc1` [Compound 6, N1,N2-bis(4-methoxyphenyl)ethane-1,2-diamine], for which the viability at 16 µM was determined as 472%.
As to `c1ccc(-c2nnc(-c3ccccc3)o2)cc1` [Compound 21, 2,5-diphenyl-1,3,4-oxadiazole], the viability at 80 µM worked out at 248%.

The assay is the same for the next values; noted with them: human respiratory syncytial virus, HEp-2; additive amount 16 μM; Hep2 cells, RS virus 1 MOI, cultured 72 hours; DMSO control = 100; read-out: Survival Rate (%).
For the compound `c1ccc(NCCNc2ccccc2)cc1` [Compound 5, N1,N2-diphenylethane-1,2-diamine], the viability at 16 µM stood at 471%.
The same measure, in the same setting: to `Clc1ccc(NCCNc2ccc(Cl)cc2)cc1` [Compound 7, N1,N2-bis(4-chlorophenyl)ethane-1,2-diamine] belongs 405%; to `O=P12c3ccccc3CN1[C@H](CNc1ccccc1)CCN2c1ccccc1` (stereo partly drawn) [Compound 8, (4S,11R)-1-phenyl-4-((phenylamino)methyl)-1,2,3,4,6-pentahydrobenzo[3,4][1,2]azaphosphoro [1,2-a][1,3,2]diazaphosphinine 11-oxide], 815%.
With `Cc1ccc2c(c1)[C@](C[N+](=O)[O-])(c1c[nH]c3c(C)cccc13)C(=O)N2C` [Compound 10, (S)-1,5-dimethyl-3-(7-methyl-1H-indole-3-yl)-3-(nitromethyl)indoline-2-one], the viability at 16 µM is 294%.
Same read-out and setting: to `c1ccc(CN2[C@H](c3cccc([C@@H]4N[C@@H](c5ccccc5)[C@H](c5ccccc5)N4Cc4ccccc4)n3)N[C@@H](c3ccccc3)[C@@H]2c2ccccc2)cc1` [Compound 11, 2,6-bis((2R,4S,5S)-1-benzyl-4,5-diphenylimidazolidine-2-yl)pyridine] belongs 274%; to `CC(C)(C)OC(=O)[C@H]1N[C@H](c2ccccc2)[C@@]2(C(=O)Nc3ccccc32)[C@@H]1c1ccc(Br)cc1` [Compound 12, tert-butyl(2′R,3R,4′S,5′S)-4′-(4-bromophenyl)-2-oxo-2′-phenylspiro[indoline-3,3′-pyrrolidine]-5′-carboxylate], 475%.
On the same count and under the same terms, next, `Cc1ccc([C@@H]2[C@@H](C(=O)OC(C)(C)C)N[C@H](c3ccccc3)[C@@]23C(=O)Nc2ccccc23)cc1` [Compound 13, tert-butyl(2′R,3R,4′S,5′S)-2-oxo-2′-phenyl-4′-(p-tolyl)spiro[indoline-3,3′-pyrrolidine]-5′-carboxylate]: 406%; `C=CCN1C(=O)/C(=C/[N+](=O)[O-])c2ccccc21` [Compound 14, (E)-1-allyl-3-(nitromethylene)indoline-2-one]: 409%; `Oc1c(Br)cc(Br)cc1/C=N/[C@H](c1ccccc1)[C@@H](c1ccccc1)N1Cc2ccccc2C1` [Compound 15, 2,4-dibromo-6-((E)-(((1R,2R)-2-(isoindoline-2-yl)-1,2-diphenylethyl)imino)methyl)phenol]: 393%.
Still for that read-out and setting: to `O=C1CCCCCC1C(Nc1ccc(OC(F)(F)F)cc1)c1ccccc1` (stereo not drawn) [Compound 16, 2-(phenyl((4-(trifluoromethoxy)phenyl)amino)methyl)cycloheptane-1-one] belongs 294%.
Take `CCOC(=O)C1=CN2C(=O)CCN2[C@@H]1C1CCCCC1` [Compound 19, ethyl(R)-1-cyclohexyl-5-oxo-6,7-dihydro-1H,5H-pyrazolo[1,2-a]pyrazole-2-carboxylate]: the viability at 16 µM is 209%.

Staying with this assay, now noted: human respiratory syncytial virus, HEp-2; additive amount 80 μM; Hep2 cells, RS virus 1 MOI, cultured 72 hours; DMSO control = 100; read-out: Survival Rate (%).
Turning to `COC(=O)C1=C(c2ccccc2)C(c2ccccc2)(C(C#N)C#N)C(C(=O)OC)=C1O` (stereo not drawn) [Compound 1, dimethyl 5-(dicyanomethyl)-2-hydroxy-4,5-diphenylcyclopenta-1,3-diene-1,3-dic arboxylate], the viability at 80 µM was found to be 359%.
Same read-out and setting: to `N[C@@H](C(=O)O)c1cccc2ccccc12` [Compound 4, (R)-2-amino-2-(naphthalene-1-yl) acetic acid] belongs 450%.
Still for that read-out and setting: next, `CN1C(=O)[C@@](C[N+](=O)[O-])(c2c[nH]c3ccccc23)c2ccccc21` [Compound 9, (S)-3-(1H-indole-3-yl)-1-methyl-3-(nitromethyl)indoline-2-one]: 276%; `CCOC(=O)C1=CN2C(=O)CCN2[C@@H]1c1cccc(Cl)c1` [Compound 17, ethyl(R)-1-(3-chlorophenyl)-5-oxo-6,7-dihydro-1H,5H-pyrazolo[1,2-a]pyrazole-2-carboxylate]: 264%.
Same read-out and setting: to `CCOC(=O)C1=CN2C(=O)CCN2[C@@H]1c1ccc(OC)cc1` [Compound 18, ethyl(R)-1-(4-methoxyphenyl)-5-oxo-6,7-dihydro-1H,5H-pyrazolo[1,2-a]pyrazole-2-carboxylate] belongs 349%.
As to `COC(=O)[C@H]1N[C@@H](c2ccccc2)[C@@H]([N+](=O)[O-])[C@@H]1c1ccccc1` [Compound 20, methyl(2S,3R,4S,5S)-4-nitro-3,5-diphenylpyrrolidine-2-carboxylate], the viability at 80 µM stood at 344%.
`CCOC(=O)C1=CN2C(=O)CC(C)(C)N2C1c1ccccc1` (stereo not drawn) [Compound 22, ethyl7,7-dimethyl-5-oxo-1-phenyl-6,7-dihydro-1H,5H-pyrazolo[1,2-a]pyrazole-2-carboxyl ate]: the viability at 80 µM was found to be 339%.
